Experimental data: patent publication US6500425B1, “Inhibiting plant pathogens with an antagonistic microorganism(s)” (The United States of America as represented by the …, priority 1988, dated 2002)

Experiments:
Assay type in all cases: in vivo
Botrytis cinerea [1] = test: Botrytis cinerea infection of wounded apples, inorganic salts with or without NRRL Y-18314 (Example XI); conditions: for Percent Infection, Salt Alone (No NRRL Y-18314): salt 2 grams/100 ml (FeSO4 5 millimolar), 10 days after inoculation, mean (standard error)
Experimental: Golden delicious apples were artificially wounded to a depth of 3 mm using a needle. Each of a first portion of the apples was treated with 50 microliter aliquots of an aqueous solution consisting of NRRL Y-18314 in sterile distilled water at a concentration of 10^7 CEU/ml with each of the salts listed in Table VIII at a concentration of 2 grams/100 ml (with the exception of FeSO4 which was utilized at a 5 millimolar concentration). A second portion of the apples was treated with a 50 microliter aqueous solution of the salts listed in Table VIII at a concentration of 2 grams/100 ml (with the exception of FeSO4 which was utilized in a concentration of 5 millimolar). Also a control was run using only sterile distilled water. Two hours after application of the above solutions, each of the apples was challenged with 20 microliters of a 10^5 spore/ml suspension of Botrytis cinerea. The average percent fruit infection of four trials (8 to 10 replicates per trial) was measured 10 days after inoculation with the Botrytis cinerea.
Values in parentheses are standard errors of the mean.

Penicillium expansum = Penicillium expansum lesion diameter on wounded apples (Example XIII); conditions: CaCl2 2 gram/100 ml alone (yeast 0), seven days
Excerpt: Golden delicious apples were artificially wounded in accordance with Example XI.
The entries of Table X are the average of 5 replicates per treatment.

Botrytis cinerea [2] = test: Botrytis cinerea infection of wounded apples, yeasts with or without CaCl2 (Example XII); conditions: CaCl2 2 grams/100 ml, no yeast, seven days, mean (standard error)
Excerpt: Golden Delicious apples were wounded in accordance with the previous example. […] Two hours later the apples were challenged with 20 microliters of a suspension of 10^4 spores/milliliters of Botrytis cinerea. Seven days after inoculation percent infection was observed. […] Values in parentheses are standard errors of the mean.

Penicillium digitatum = Penicillium digitatum fruit rot of wounded grapefruit, CaCl2 and yeast concentrations (Example XIV)
Experimental: Grapefruit was wounded as in Example I. The wounded grapefruit were then treated with 50 microliter aliquots of the constituents identified in Tables XI and XII in sterile distilled water. Two hours later the […] were challenged with 20 microliters of a 10^4 spore/milliliter suspension of Penicillium digitatum. The grapefruit were incubated for 5 days at 24° C. before observations were taken.

[Cl-].[K+] [KCl]
Percent Infection, Salt Alone (No NRRL Y-18314) (Botrytis cinerea [1]): 100.0 (±0.0) %

O=S(=O)([O-])[O-].[Fe+2] [FeSO4]
Percent Infection, Salt Alone (No NRRL Y-18314) (Botrytis cinerea [1]): 87.5 (±12.5) %

[Cl-].[Na+] [NaCl]
Percent Infection, Salt Alone (No NRRL Y-18314) (Botrytis cinerea [1]): 100.0 (±0.0) %

[Cl-].[Cl-].[Mg+2] [MgCl2]
Percent Infection, Salt Alone (No NRRL Y-18314) (Botrytis cinerea [1]): 100.0 (±0.0) %

[Cl][Mn][Cl] [MnCl2]
Percent Infection, Salt Alone (No NRRL Y-18314) (Botrytis cinerea [1]): 100.0 (±0.0) %

[Ca+2].[Cl-].[Cl-] [CaCl2, calcium chloride]
Average Lesion Diameter (Penicillium expansum; 10^3 spores/ml): 40.4 mm
Average Lesion Diameter (Penicillium expansum; 10^4 spores/ml): 45.2 mm
Average Lesion Diameter (Penicillium expansum; 10^5 spores/ml): 47.0 mm
Average Percent Infection (Botrytis cinerea [2]): 100.0 (±0.0) %
Percent Infection, Salt Alone (No NRRL Y-18314) (Botrytis cinerea [1]): 95.0 (±5.0) %
infection reduction when used alone (Botrytis cinerea [1]; used alone, 10 days): approximately 5%
Average Percent Fruit Rot (Penicillium digitatum; CaCl2 1% alone (yeast 0), series of Table XI): 39.0%
Average Percent Fruit Rot (Penicillium digitatum; CaCl2 1% alone (yeast 0), series of Table XII): 63.0%
Average Percent Fruit Rot (Penicillium digitatum; CaCl2 2% alone (yeast 0), series of Table XI): 22.8%
Average Percent Fruit Rot (Penicillium digitatum; CaCl2 2% alone (yeast 0), series of Table XII): 33.0%
